The target of data set [1] is T1, human serum albumin (HSA) (Homo sapiens, UniProt P02768).
T1 construct: purchased Sigma-Aldrich A8763
Also on record: method as in PMID 25398250. The conditions noted are these: cited from earlier work.

Data set [2] is described as follows: Speciation in threefold diluted human blood serum by UV-vis. The data set is classed as in vitro ADME. The conditions noted are these: 10 µM complex. The text has this:
With this knowledge, samples prepared in blood serum were studied by UV–vis spectrometry to count the significance of HMM and LMM serum components in the speciation of the complexes (Figs. 9 and S8). Unfortunately, fluorescence spectra could not be recorded due to the significant light scattering of the samples. […] UV–vis spectra in Fig. 9 resemble the behaviour observed for the complex – HSA – Tf ternary systems (Fig. S7) with some important differences. […] This refers to the altered coordination sphere of the metal complex. […] Keeping in mind the difficulties of interpretation of UV–vis spectroscopic data obtained in complex matrices, some assumptions can be made relying on the results of binary and ternary systems. Significant Tf binding of In(III) in blood serum is likely, while GaQ3 interacts less with this protein. […] Formation of HQ – Mg(II) complex is not feasible even at physiological Mg(II) ion levels (0.7–1.0 mM) based on the available stability constants. Zn(II) ion forms higher stability complexes with HQ as Mg(II) and could compete for HQ with In(III) or Ga(III) if its total blood plasma concentration (10–28 μM) would be freely available. […]
For (apo)Tf containing samples, complex concentrations were 20 μM and 0–2.5 equiv. protein was added. Reference spectra for the complexes, ligands and protein were recorded as well. […]

Details of data set [3]: method as in PMID 25398250. The conditions noted are these: same LMM competitors in tenfold excess, investigated separately; cited from earlier work.
For the next data set, the system named is HSA and Tf. The experiment in a line: Complex - HSA - Tf ternary systems (three-dimensional fluorescence and UV-vis). Format: binding, human. The conditions noted are these: pH 7.40; for metal ion Tf bound: 10 μM complex, HSA 5.2 equiv., Tf 0.32 equiv.; for dissociation of the complex: 212 μM HSA and 12.8 μM Tf (ratio 1:21.2:1.28). On the procedure: The reliability of UV–vis and fluorescence spectroscopic techniques in the characterization of the mode of interaction of In(III) complexes with HSA and (apo)Tf was proven in the former sections. Therefore, as a continuation three-dimensional fluorescence and UV–vis spectra were recorded for InQ3 and GaQ3 in the presence of both HSA and Tf (Figs. 7 and S7).
In these experiments, the applied HSA-to-Tf ratio corresponds to their physiological ratio in blood serum (630:38). Figure 8 depicts the intensity changes of the ternary system (complex and both proteins) for InQ3 at λEX = 367 nm and λEM = 530 nm in comparison to the respective binary systems (complex and only one type of protein). Apparently, albumin binding of the complex is indeed achieved in the ternary system, although to a lower extent compared to the InQ3 – HSA binary system, and the Tf binding of In(III) becomes more significant at higher protein concentrations. Consequently, the measured intensity reduces parallel with the decreasing (free and albumin bound) InQ3 concentration. […] Based on these spectra, InQ3 and GaQ3 are at least partly HSA-bound. However, minor dissociation of the complexes is evidenced by the UV–vis spectra (Fig. S7) even at this ratio that is more advanced for InQ3 than for GaQ3 (ca. 30% and 10% metal ion is Tf bound, respectively). The differences between the two complexes become more pronounced by getting closer to the physiologically relevant protein concentrations. In the presence of 212 μM HSA and 12.8 μM Tf (ratio: 1:21.2:1.28), the fluorescence of InQ3 is diminished, as most of the complex decomposes and In(III) is bound to Tf. […] To mimic the blood protein concentrations, three-times higher values would be needed; however, under that conditions fluorometric detection becomes inadequate due to the too high absorbance and light scattering of the samples.
Three-dimensional spectra were recorded for ternary systems containing InQ3 or GaQ3, HSA and Tf in the wavelength range λEX = 250 – 450 nm and λEM = 300 – 700 nm. All three-dimensional spectra were corrected by residual fluorescence of the proteins, inner filter effect and self-absorbance.

Details of data set [4]: method as in PMID 23089600. The conditions noted are these: 10 μM, pH 7.4; cited from earlier work.
In data set [5] the target is T1, human serum albumin (HSA). Briefly: HSA binding by membrane ultrafiltration-UV-vis. The conditions noted are these: 2.5 equiv. protein.

A value given as a limit tells only on which side of the number the result lay.

T1 sequence (P02768 25-609): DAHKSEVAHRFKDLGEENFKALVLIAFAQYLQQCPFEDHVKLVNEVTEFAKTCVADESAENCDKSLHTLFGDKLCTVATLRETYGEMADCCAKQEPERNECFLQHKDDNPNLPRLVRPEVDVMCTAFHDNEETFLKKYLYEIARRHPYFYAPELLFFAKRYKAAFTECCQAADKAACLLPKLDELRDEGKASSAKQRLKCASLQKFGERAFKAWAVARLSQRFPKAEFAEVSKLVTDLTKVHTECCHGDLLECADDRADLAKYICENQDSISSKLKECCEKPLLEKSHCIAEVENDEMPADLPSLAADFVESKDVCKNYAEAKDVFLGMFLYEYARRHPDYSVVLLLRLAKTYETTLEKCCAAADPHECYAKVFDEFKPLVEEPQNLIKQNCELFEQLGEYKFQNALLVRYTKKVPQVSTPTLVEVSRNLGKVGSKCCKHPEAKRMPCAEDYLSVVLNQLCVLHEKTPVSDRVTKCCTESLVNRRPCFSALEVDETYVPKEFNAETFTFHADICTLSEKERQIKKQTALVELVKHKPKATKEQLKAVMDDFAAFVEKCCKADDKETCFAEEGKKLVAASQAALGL

On to `[Ga+3].[O-]c1cccc2cccnc12.[O-]c1cccc2cccnc12.[O-]c1cccc2cccnc12` [GaQ3, Tris(8-Quinolinolato)gallium(III), reference compound], for which, in data set [1], the “logK’ (HSA binding constant)” value is listed as 4.04. The “time to reach chemical equilibrium in serum” value in data set [2] is recorded as not above 10 min. The “effect of LMM competitors on the complex” value in data set [3] is given as “practically not affected”. In the data set with HSA and Tf, the “metal ion Tf bound” value is on record as approximately 10% and the “dissociation of the complex” value was 25%. Further, in data set [4], the “fraction of tris-ligand complex” value is recorded as 86%.

In the case of `Cc1c([O-])c(=O)ccn1C.Cc1c([O-])c(=O)ccn1C.Cc1c([O-])c(=O)ccn1C.[In+3]` [InD3], in data set [5], the “In(III) ion bound to the protein (deferiprone liberation)” value is “ca. 7%” and the “complex bound to HSA” value is recorded as “ca. 8%”.

Turning to `[In+3].[O-]c1cccc2cccnc12.[O-]c1cccc2cccnc12.[O-]c1cccc2cccnc12` [InQ3, Tris(8-Quinolinolato)indium(III)], in data set [2], the “time to reach chemical equilibrium in serum” value amounted to 240 min. Besides, in the data set with HSA and Tf, the “metal ion Tf bound” value was “ca. 30%” and the “dissociation of the complex” value is listed as “practically completely dissociated”.

Source of the values: PMC8960621, “Solution speciation and human serum protein binding of indium(III) complexes of 8-hydroxyquinoline, deferiprone and maltol” (Journal of Biological Inorganic Chemistry, 2022).
